Laboratory results: article PMC5902495, “Synthesis of Symmetrical Tetrameric Conjugates of the Radiolanthanide Chelator DOTPI for Application in Endoradiotherapy by Means of Click Chemistry” (Frontiers in Chemistry, 2018)

Assays:
Type in all cases: physicochemical
[1] = Protonation constants of ligands by pH-potentiometry; settings: 25°C, I = 0.15 M NaCl
Description: (§1) For determining the protonation constants of DOTPI(Chx)4 and DOTPI three parallel pH-potentiometric titration were made with 0.2 M NaOH in 0.002 M ligand solutions. The stability and protonation constants of the Ca^II and Zn^II complexes formed with DOTPI(Chx)4 and DOTPI ligands have been determined by direct pH-potentiometric titration made at 1:1 and 2:1 metal to ligand concentration ratios. (the concentration of ligands was 0.002 M). For the calculation of the logKML and logKMLHi values, the mL base—pH data used were obtained in the pH range 1.7–12.0.
(§2) For pH measurements and titrations, a Metrohm 785 DMP Titrino titration workstation and a Metrohm-6.0233.100 combined electrode were used. Equilibrium measurements were carried out at a constant ionic strength (0.15 M NaCl) in 6 mL samples at 25°C. The solutions were stirred, and constantly purged with N2. The titrations were performed in a pH range of 1.7–11.7. KH-phthalate (pH = 4.005) and borax (pH = 9.177) buffers were used to calibrate the pH meter. For calculation of [H^+] from measured pH values, the method proposed by Irving et al. was used (Irving et al., [1967]). A 0.01 M HCl solution was titrated with the standardized NaOH solution in the presence of 0.1 M NaCl. Differences between the measured (pHread) and calculated pH (–log[H^+]) values were used to obtain the equilibrium H^+ concentration from the pH values, measured in the titration experiments. For the equilibrium calculations, the stoichiometric water ionic product (pKw) is also needed to calculate [H^+] values in basic conditions. The VNaOH – pHread data pairs of the HCl – NaOH titration obtained in the pH range 10.5–12 have been used to calculate the pKw value (pKw = 13.85). For the calculation of the equilibrium constants the program PSEQUAD (Zekany and Nagypal, [1985]) was used.
(§3) 2. Protonation and complexation equilibria of DOTPI and
(§4) The protonation processes of the DOTPI and DOTPI(Chx)4, ligands have been studied by pH-potentiometry. The protonation constants (logKiH) of ligands are defined according to Eq. (1).
(§5) The stability and protonation constants of DOTPI and DOTPI(Chx)4 complexes with several metal ions were determined by pH-potentiometric and UV/Vis spectrophotometric, methods.
(§6) The stability and protonation constants of the metal complexes formed with the DOTPI and DOTPI(Chx)4, ligands, defined by Eqs. […]
(§7) where i = 1, 2, 3…5. The KML and KMHiL values characterizing the formation of DOTPI and DOTPI(Chx)4 complexes of CaII and ZnII have been calculated from the pH-potentiometric titration data obtained at 1:1 metal to ligand concentration ratios. The protonation constants of the complexes Cu(DOTPI) and Cu(DOTPI( Chx)4) were also determined by pH-potentiometric titrations, made at 1:1 metal to ligand concentration ratio. The pH-potentiometric titrations of DOTPI ligand were also performed at 2:1 metal-to-ligand ratio in order to examine the possible formation of dinuclear CaII-, ZnII-, and CuII-DOTPI complexes.
(§8) The stability and protonation constants of the dinuclear complexes formed with the DOTPI […]
(§9) where i=1 and 2. In calculating the equilibrium constants, the best fit of the mL base – pH data was obtained by assuming the formation of ML, MHL, MH 2L, MH3L, MH4L, MH5L, M2L, M2LH, and M2LH2 complexes with DOTPI and DOTPI(Chx)4.
(§10) (also on this page, place not known: ]H][LH[ ]LH[K 1i iH + − = DOTPI( Chx)4 f ormed ]L][M[ ]ML[K ML = ]H][LMH[ ]LMH[K 1i i LMHi + − = i 3 …5. Ca II Zn II -potentiometric pH - metal -to-ligand Cu II-DOTPI ]M][ML[ ]LM[K 2 LM2 = ]H][LHM[ ]LHM[K 1i2 i2 LHM i2 + − = pH MH 4L,) […]

[2] = Stability and protonation constants of Ca^II complexes (pH-potentiometry); settings: 25°C, 0.15 M NaCl
Description: as §1, §2, §3, §4, §5, §6
where i = 1, 2, 3…5. The KML and KMHiL values characterizing the formation of DOTPI and DOTPI(Chx)4 complexes of CaII and ZnII have been calculated from the pH-potentiometric titration data obtained at 1:1 metal to ligand concentration ratios. The protonation constants of the complexes Cu(DOTPI) and Cu(DOTPI( Chx)4) were also determined by pH-potentiometric titrations, made at 1:1 metal to ligand concentration ratio. […]

[3] = Stability and protonation constants of Zn^II complexes (pH-potentiometry); settings: 25°C, 0.15 M NaCl
Description: as §1, §2, §3, §4, §5, §6, §7, §8, §9, §10

O=C(O)CCP(=O)(O)CN1CCN(CP(=O)(O)CCC(=O)O)CCN(CP(=O)(O)CCC(=O)O)CCN(CP(=O)(O)CCC(=O)O)CC1 [DOTPI, 1,4,7,10-tetraazacyclododecane-1,4,7,10-tetrakis[methylene(2-carboxyethylphosphinic acid)]]
log K1H [1]: 10.27 (1) | log K2H [1]: 8.42 (1) | log K3H [1]: 5.45 (2) | log K4H [1]: 4.78 (2) | log K5H [1]: 4.42 (2) | log K6H [1]: 3.88 (2) | log K7H [1]: 2.83 (2) | log K8H [1]: 1.17 (2) | Σlog KiH (total basicity) ([1]; distant carboxylate groups of DOTPI not considered): 22.69 | protonation constant CaH2L [2]: 5.04 (9) | protonation constant CaHL [2]: 6.49 (4) | stability constant of dinuclear complex Ca2L [2]: 2.85 (5) | protonation constant Zn2LH [3]: 5.02 (5) | protonation constant Zn2LH2 [3]: 4.87 (4) | protonation constant ZnH2L [3]: 5.15 (3) | protonation constant ZnH3L [3]: 4.40 (4) | protonation constant ZnH4L [3]: 4.42 (1) | protonation constant ZnHL [3]: 5.65 (3) | stability constant of dinuclear complex Zn2L [3]: 3.78 (4)
